# Measured values published in paper PMC6271944 (Molecules, 2014).
# Assays:
# Type in all cases: in vitro ADME
# CYP2C8 = target: T1, CYP2C8 (Homo sapiens, UniProt P10632); assay: CYP inhibition in human liver microsomes, substrate cocktail, LC-MS/MS (paclitaxel); details: metabolite 6α-hydroxypaclitaxel, read-out: IC50 for HLM, CYP2C8
# T1 construct: Pooled human liver microsomes (HLM, LOT 32556) were purchased from BD Gentest Corporation; tissue BD Gentest Corporation LOT 32556; host or cells: pooled human liver microsomes
# T1 sequence (P10632 1-490): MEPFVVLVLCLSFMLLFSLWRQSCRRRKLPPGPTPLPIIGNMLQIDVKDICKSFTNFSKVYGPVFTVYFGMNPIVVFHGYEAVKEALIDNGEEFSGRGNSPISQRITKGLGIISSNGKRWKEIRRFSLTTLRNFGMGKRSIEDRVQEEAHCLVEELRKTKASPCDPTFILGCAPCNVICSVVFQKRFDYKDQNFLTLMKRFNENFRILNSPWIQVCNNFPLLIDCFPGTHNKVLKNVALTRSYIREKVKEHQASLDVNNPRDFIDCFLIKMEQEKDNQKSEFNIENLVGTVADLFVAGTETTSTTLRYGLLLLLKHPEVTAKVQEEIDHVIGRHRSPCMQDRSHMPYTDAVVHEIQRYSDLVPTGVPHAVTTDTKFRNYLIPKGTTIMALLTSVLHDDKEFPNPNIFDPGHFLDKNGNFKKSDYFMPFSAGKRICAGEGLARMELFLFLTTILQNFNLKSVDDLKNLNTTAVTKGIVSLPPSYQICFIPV
# Description: (§1) Positive controls (furafyline for CYP1A2, montelukast for CYP2C8, sulfaphenazole for CYP2C9, S-(+)-N-3-benzylnirvanol for CYP2C19, quinidine for CYP2D6, ketoconazole for CYP3A4) and specific substrates (phenacetin for CYP1A2, paclitaxel for CYP2C8, diclofenac for CYP2C9, S-mephenytoin for CYP2C19, dextromethorphan for CYP2D6, midazolam for CYP3A4) are consistent with our previous papers. The substrates were used at concentrations approximately equal to their respective Michaelis-Menten constant (Km) values: 10 μM phenacetin, 5 μM paclitaxel, 5 μM diclofenac, 200 μM S-mephenytoin, 5 μM dextromethorphan, and 2 μM midazolam. NADP^+ was added after a 15 min preincubation of all other components at 37 °C. After a given incubation time (30 min), the reactions were terminated by addition of 60 μL ice-cold acetonitrile containing gemfibrozil and buspirone as internal standards. Incubation samples were stored at −80 °C until used in liquid chromatography-tandem mass spectrometry (LC-MS/MS) analysis. The mixture was centrifuged at 3,500 rpm for 5 min. The supernatant was mixed with equal volume of a 1:1 mixture of methanol and water and 20 μL of the final mixture was used for LC-MS/ MS analysis. […]
# (§2) The CYP inhibition potential were evaluated by measuring the formation of one or more metabolites of the test substrates. […]
# CYP3A4 = target: T2, CYP3A4 (Homo sapiens, UniProt P08684); assay: CYP inhibition in human liver microsomes, substrate cocktail, LC-MS/MS (midazolam); details: metabolite 1-hydroxymidazolam, read-out: IC50 for HLM, CYP3A4
# T2 construct: Pooled human liver microsomes (HLM, LOT 32556) were purchased from BD Gentest Corporation; tissue BD Gentest Corporation LOT 32556; host or cells: pooled human liver microsomes
# Description: as §1, §2
# CYP2C7 = target: T3, CYP2C7 (Rattus norvegicus, UniProt P05179); assay: CYP inhibition in rat liver microsomes, substrate cocktail, LC-MS/MS (paclitaxel); details: 95% CI in brackets, read-out: IC50 for RLM, CYP2C7 (table row CYP2C8)
# T3 construct: Pooled rat liver microsomes were prepared from three male Sprague-Dawley rats; from tissue; host or cells: pooled liver microsomes of three male Sprague-Dawley rats, prepared at HD Biosciences Co
# T3 sequence (P05179 1-490): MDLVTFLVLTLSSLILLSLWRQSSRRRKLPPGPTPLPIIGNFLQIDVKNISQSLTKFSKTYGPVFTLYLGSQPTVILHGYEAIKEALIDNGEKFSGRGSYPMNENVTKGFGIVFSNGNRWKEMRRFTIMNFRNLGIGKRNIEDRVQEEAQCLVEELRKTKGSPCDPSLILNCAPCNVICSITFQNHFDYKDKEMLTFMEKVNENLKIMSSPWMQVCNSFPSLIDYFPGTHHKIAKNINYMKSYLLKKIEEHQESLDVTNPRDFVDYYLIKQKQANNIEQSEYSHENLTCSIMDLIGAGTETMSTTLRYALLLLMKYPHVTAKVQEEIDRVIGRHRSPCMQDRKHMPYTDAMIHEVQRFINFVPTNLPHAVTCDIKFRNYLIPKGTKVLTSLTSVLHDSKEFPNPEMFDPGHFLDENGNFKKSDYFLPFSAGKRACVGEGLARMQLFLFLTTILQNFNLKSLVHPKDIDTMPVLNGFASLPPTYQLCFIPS
# Description: as §1, §2
# CYP2C11 = target: T4, CYP2C11 (Rattus norvegicus, UniProt P08683); assay: CYP inhibition in rat liver microsomes, substrate cocktail, LC-MS/MS (diclofenac); details: pH 7.4, probe diclofenac 5 μM, read-out: IC50 for RLM, CYP2C11 (table row CYP2C9)
# T4 sequence (P08683 1-500): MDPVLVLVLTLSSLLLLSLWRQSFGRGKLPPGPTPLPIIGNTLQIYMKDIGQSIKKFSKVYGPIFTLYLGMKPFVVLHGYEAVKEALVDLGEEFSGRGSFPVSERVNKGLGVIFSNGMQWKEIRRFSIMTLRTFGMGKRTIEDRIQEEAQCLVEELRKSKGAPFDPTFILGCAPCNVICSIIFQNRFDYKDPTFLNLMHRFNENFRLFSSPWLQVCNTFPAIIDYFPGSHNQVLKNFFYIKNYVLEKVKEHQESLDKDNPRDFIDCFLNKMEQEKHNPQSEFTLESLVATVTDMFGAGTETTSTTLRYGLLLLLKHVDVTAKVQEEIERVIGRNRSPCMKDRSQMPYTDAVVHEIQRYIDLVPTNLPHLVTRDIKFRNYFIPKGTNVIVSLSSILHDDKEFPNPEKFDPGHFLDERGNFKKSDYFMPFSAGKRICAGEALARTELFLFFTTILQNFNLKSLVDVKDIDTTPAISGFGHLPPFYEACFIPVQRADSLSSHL
# Description: as §1, §2
# T2 sequence (P08684 whole entry): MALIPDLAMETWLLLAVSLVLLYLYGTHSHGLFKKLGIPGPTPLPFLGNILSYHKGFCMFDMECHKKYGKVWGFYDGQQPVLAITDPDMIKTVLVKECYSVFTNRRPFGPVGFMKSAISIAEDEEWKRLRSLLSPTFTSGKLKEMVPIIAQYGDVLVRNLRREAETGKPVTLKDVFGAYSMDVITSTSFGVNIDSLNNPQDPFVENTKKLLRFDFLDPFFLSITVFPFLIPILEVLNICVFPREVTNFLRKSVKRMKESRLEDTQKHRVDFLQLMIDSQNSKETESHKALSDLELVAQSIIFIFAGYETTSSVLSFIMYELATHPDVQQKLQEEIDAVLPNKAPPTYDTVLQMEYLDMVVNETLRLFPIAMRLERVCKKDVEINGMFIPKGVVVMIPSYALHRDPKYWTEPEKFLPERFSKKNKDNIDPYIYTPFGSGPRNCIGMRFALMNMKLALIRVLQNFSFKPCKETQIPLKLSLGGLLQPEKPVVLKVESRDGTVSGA
structure (smiles),measurement,setting,value
"O=C(O)[C@H]1O[C@@H](Oc2cc3oc(-c4ccc(O)cc4)cc(=O)c3c(O)c2O)[C@H](O)[C@@H](O)[C@@H]1O [scutellarin, Scutellarin]",IC50,CYP2C8,> 100 µM
same,IC50,CYP3A4,> 100 µM
same,IC50,CYP2C7,63.1 µM
same,IC50 at 30 min,CYP2C11,> 100 µM
